Assay results taken from ChEMBL document CHEMBL3991601, “The target landscape of clinical kinase drugs” (Science, 2017).
pKd: −log10 of the molar value. The source made the active and inactive calls. Cut-off read from the data, not from the text of the source, for most assays here: actives have a measured Kd and inactives only a lower limit.

Key:
[1] = target: Tyrosine-protein kinase ABL2 (Homo sapiens, UniProt P42684)
[2] = target: T1, Serine/threonine-protein kinase ICK (Homo sapiens, UniProt Q9UPZ9)
T1 sequence (Q9UPZ9 whole entry): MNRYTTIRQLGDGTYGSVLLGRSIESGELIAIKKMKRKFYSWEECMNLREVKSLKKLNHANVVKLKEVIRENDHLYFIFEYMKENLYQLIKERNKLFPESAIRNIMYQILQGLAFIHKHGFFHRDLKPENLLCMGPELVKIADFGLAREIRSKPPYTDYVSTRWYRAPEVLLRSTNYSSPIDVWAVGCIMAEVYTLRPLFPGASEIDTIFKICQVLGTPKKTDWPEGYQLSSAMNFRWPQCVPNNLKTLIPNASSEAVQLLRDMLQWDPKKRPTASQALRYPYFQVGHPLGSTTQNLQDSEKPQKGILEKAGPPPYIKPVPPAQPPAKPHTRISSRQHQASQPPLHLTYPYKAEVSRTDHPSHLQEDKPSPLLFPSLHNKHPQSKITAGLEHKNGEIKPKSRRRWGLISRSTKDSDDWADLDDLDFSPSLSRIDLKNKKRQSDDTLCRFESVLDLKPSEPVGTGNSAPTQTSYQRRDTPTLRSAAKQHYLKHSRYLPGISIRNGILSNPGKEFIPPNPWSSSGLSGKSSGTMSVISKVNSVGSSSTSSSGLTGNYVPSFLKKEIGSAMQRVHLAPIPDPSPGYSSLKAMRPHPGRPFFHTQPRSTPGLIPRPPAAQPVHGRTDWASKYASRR

[3] = target: Insulin-like growth factor 1 receptor (Homo sapiens, UniProt P08069)
[4] = target: T2, Inhibitor of nuclear factor kappa-B kinase subunit epsilon (Homo sapiens, UniProt Q14164)
T2 sequence (Q14164 whole entry): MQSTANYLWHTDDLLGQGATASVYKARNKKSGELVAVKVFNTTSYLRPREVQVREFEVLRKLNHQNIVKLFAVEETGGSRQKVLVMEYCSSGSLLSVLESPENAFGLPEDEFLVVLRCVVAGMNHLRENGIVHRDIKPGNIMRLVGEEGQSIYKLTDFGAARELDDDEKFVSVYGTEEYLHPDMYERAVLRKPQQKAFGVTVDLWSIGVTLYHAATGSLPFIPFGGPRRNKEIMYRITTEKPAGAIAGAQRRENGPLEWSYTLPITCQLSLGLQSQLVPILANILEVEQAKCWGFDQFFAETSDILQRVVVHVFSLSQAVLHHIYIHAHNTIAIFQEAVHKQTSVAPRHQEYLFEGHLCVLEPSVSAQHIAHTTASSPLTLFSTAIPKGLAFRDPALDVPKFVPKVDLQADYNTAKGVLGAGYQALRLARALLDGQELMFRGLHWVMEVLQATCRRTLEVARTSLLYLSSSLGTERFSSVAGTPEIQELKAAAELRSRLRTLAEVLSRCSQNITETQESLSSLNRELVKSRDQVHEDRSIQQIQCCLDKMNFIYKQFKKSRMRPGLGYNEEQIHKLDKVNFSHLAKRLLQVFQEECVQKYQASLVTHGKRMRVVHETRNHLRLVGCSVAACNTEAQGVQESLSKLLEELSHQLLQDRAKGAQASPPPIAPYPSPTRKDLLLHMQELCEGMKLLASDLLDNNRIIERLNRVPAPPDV

[5] = target: cAMP-dependent protein kinase catalytic subunit gamma (Homo sapiens, UniProt P22612)
[6] = target: Serine/threonine-protein kinase SIK3 (Homo sapiens, UniProt Q9Y2K2)
[7] = target: T3, General transcription and DNA repair factor IIH helicase subunit XPD (Homo sapiens, UniProt P18074); conditions: read-out: Kd apparent; k-562, colo 205, sk-n-be(2) and mv-4-11
T3 sequence (P18074 whole entry): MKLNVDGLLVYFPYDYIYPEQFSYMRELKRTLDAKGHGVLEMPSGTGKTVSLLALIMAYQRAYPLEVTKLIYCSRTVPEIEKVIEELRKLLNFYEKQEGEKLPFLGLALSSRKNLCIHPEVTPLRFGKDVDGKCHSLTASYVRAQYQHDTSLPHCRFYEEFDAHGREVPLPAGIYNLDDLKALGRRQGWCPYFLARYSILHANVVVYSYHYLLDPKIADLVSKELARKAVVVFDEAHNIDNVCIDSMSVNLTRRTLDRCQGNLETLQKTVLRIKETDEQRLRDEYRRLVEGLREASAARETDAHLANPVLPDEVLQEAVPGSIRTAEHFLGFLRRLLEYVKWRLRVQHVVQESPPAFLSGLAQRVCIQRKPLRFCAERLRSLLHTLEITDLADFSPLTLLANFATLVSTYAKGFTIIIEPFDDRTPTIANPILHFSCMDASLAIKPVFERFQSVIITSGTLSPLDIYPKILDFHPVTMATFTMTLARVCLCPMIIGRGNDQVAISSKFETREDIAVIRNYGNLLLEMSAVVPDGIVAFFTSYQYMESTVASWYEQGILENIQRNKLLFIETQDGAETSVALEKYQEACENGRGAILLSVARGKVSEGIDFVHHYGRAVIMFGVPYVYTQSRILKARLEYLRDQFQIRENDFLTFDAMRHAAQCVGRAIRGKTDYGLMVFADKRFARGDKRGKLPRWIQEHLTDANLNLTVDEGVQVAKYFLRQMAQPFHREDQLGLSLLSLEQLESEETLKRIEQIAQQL
Note: in the data inactive means no Kd found up to 30 µM.

Chain of Serine/threonine-protein kinase SIK3 (Q9Y2K2 whole entry): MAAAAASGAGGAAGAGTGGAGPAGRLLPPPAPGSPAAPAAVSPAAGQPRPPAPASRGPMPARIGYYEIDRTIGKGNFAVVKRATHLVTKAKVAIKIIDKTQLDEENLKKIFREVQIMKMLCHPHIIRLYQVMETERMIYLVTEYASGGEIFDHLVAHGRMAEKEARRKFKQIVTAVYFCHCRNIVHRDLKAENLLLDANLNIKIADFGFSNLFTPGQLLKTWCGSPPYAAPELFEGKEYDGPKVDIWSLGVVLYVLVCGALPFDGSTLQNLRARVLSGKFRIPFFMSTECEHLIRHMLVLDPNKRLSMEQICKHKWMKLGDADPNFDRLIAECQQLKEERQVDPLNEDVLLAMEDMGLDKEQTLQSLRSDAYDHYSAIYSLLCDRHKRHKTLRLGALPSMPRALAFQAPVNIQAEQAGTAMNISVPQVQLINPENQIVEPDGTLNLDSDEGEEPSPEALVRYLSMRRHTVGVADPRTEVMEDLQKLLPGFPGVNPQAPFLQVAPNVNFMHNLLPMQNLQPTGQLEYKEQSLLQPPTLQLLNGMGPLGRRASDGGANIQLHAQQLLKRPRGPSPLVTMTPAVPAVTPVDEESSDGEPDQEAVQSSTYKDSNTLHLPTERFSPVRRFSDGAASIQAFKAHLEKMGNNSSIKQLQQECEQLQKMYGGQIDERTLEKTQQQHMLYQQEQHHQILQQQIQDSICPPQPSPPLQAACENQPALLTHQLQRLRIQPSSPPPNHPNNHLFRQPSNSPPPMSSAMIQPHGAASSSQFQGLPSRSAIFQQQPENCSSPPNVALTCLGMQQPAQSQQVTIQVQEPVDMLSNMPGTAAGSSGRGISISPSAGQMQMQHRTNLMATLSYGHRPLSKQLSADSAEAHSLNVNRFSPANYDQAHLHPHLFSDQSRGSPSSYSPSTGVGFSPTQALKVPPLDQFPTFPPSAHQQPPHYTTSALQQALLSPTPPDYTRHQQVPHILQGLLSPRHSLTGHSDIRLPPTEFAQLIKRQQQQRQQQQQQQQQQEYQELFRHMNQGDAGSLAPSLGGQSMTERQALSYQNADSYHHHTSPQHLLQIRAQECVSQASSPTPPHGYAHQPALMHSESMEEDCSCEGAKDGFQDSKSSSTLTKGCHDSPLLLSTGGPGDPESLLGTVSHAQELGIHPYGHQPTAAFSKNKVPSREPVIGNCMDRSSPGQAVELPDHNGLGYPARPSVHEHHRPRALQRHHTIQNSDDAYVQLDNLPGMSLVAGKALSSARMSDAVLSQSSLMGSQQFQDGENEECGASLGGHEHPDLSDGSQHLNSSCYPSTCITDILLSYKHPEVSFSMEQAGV
Chain of Tyrosine-protein kinase ABL2 (P42684 whole entry): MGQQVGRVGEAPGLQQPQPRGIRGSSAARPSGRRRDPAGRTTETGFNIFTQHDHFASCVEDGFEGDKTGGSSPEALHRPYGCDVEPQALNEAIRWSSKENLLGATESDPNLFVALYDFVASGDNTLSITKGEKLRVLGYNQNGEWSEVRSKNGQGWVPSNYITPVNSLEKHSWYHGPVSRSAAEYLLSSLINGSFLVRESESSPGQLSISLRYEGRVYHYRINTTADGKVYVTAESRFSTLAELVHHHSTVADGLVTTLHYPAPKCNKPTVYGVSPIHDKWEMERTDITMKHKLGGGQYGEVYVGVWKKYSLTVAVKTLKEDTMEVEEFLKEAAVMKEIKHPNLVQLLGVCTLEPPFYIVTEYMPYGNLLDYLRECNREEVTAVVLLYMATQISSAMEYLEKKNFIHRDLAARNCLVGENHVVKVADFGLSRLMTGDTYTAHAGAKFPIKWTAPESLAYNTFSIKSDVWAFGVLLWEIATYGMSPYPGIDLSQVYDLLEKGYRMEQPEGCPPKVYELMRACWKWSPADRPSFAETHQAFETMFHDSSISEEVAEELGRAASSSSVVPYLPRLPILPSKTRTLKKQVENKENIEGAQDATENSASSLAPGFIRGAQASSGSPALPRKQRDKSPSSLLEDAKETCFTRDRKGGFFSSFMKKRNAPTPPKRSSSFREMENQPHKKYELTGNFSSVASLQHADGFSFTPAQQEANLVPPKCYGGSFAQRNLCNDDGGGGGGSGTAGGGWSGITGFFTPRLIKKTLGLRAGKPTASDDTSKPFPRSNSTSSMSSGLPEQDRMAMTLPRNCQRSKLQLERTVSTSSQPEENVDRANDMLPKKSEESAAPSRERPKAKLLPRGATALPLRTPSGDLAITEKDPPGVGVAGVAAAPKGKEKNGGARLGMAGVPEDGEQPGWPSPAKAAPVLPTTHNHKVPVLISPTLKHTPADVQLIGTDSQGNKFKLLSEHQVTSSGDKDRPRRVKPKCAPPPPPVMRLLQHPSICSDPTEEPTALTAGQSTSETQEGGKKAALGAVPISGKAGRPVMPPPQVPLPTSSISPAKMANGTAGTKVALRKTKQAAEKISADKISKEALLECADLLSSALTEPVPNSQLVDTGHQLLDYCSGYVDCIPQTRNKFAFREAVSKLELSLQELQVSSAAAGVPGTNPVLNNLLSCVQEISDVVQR
Chain of Insulin-like growth factor 1 receptor (P08069 31-736 limits assumed): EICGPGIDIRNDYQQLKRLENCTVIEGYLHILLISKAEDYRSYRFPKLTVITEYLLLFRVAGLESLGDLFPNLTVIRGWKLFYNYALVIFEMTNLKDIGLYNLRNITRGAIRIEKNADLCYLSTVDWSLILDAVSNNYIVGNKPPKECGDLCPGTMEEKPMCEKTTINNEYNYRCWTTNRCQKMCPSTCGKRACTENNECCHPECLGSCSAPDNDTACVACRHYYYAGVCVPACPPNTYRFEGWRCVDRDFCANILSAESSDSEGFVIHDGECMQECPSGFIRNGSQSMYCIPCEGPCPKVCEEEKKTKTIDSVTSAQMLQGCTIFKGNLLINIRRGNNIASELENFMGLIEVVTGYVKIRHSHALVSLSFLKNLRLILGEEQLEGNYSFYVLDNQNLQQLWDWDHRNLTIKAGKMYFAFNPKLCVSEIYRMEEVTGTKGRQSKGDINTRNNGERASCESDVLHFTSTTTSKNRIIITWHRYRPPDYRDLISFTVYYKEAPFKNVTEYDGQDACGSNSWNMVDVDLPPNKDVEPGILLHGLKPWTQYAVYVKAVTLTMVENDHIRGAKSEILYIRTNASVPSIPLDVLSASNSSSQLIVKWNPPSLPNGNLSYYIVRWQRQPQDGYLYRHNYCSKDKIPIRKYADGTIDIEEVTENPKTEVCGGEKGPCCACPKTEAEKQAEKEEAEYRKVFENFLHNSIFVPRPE
Chain of Insulin-like growth factor 1 receptor (P08069 741-1367 limits assumed): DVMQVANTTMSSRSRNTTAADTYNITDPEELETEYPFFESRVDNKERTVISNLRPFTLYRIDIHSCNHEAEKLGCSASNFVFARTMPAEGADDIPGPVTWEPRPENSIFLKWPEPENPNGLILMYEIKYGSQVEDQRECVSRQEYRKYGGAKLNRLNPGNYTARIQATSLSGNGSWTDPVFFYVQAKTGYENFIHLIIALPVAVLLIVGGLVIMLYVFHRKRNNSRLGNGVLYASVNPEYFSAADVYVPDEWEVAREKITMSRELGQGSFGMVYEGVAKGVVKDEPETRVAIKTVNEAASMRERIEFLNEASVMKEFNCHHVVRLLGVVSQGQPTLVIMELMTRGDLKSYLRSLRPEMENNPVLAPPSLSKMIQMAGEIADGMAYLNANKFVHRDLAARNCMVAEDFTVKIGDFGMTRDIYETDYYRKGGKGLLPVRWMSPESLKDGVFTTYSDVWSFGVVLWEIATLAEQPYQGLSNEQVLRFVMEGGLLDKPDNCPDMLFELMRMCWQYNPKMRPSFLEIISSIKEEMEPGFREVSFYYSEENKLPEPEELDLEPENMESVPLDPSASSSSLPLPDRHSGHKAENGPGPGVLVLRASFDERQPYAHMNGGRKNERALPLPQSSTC
Chain of cAMP-dependent protein kinase catalytic subunit gamma (P22612 whole entry): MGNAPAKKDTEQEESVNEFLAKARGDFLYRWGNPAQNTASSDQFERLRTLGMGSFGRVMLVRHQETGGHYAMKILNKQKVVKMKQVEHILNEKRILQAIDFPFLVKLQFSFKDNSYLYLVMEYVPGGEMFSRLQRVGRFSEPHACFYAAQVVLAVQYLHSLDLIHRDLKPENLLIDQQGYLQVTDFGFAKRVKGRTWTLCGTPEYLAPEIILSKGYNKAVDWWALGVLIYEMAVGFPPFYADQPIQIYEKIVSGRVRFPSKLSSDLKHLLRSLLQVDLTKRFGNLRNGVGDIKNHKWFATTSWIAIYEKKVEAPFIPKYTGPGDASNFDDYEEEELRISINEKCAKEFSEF

| Compound | Kd [1] | Kd [2] | Kd [3] | Kd [4] | Kd [5] | Kd [6] | Kd [7] | pKd [2] |
| --- | --- | --- | --- | --- | --- | --- | --- | --- |
| COc1ccc(S(=O)(=O)N(C(C)=O)c2ccccc2/C=C/c2cc[n+]([O-])cc2)cc1 [HMN-214] | > 30 µM (inactive) | > 30 µM (inactive) | > 30 µM (inactive) | > 30 µM (inactive) | > 30 µM (inactive) | > 30 µM (inactive) | > 30 µM (inactive) |  |
| O=C(Nc1cc(C(F)(F)F)cc(C(F)(F)F)c1)c1cc(Cl)ccc1O [IMD-0354] | > 30 µM (inactive) | > 30 µM (inactive) | > 30 µM (inactive) | > 30 µM (inactive) | > 30 µM (inactive) | > 30 µM (inactive) | > 30 µM (inactive) |  |
| CNC(=O)c1cccc2cc(Oc3ccnc4cc(OCC5(N)CC5)c(OC)cc34)ccc12 [LUCITANIB] | > 30 µM (inactive) | > 30 µM (inactive) | > 30 µM (inactive) | > 30 µM (inactive) | > 30 µM (inactive) | > 30 µM (inactive) | > 30 µM (inactive) |  |
| NC1(c2ccc(-c3nc4ccn5c(=O)[nH]nc5c4cc3-c3ccccc3)cc2)CCC1 [MK-2206] | > 30 µM (inactive) | > 30 µM (inactive) | > 30 µM (inactive) | > 30 µM (inactive) | > 30 µM (inactive) | > 30 µM (inactive) | > 30 µM (inactive) |  |
| Cn1cc(-c2cnc3ccc4ccc(CS(=O)(=O)NCc5ccccn5)cc4c(=O)c3c2)cn1 [MK-8033] | > 30 µM (inactive) | > 30 µM (inactive) | > 30 µM (inactive) | > 30 µM (inactive) | > 30 µM (inactive) | > 30 µM (inactive) | > 30 µM (inactive) |  |
| FC(F)(F)c1ccc(/C=C/c2nc(COc3ccc(CCCCn4ccnn4)cc3)co2)cc1 [MUBRITINIB] | > 30 µM (inactive) | > 30 µM (inactive) | > 30 µM (inactive) | > 30 µM (inactive) | > 30 µM (inactive) | > 30 µM (inactive) | > 30 µM (inactive) |  |
| COc1ncc(-c2ccc3nccc(-c4ccnnc4)c3c2)cc1NS(=O)(=O)c1ccc(F)cc1F [OMIPALISIB] | > 30 µM (inactive) | > 30 µM (inactive) | > 30 µM (inactive) | > 30 µM (inactive) | > 30 µM (inactive) | > 30 µM (inactive) | > 30 µM (inactive) |  |
| CCCCCCCCCCCCCCCCCCOP(=O)([O-])OC1CC[N+](C)(C)CC1 [PERIFOSINE] | > 30 µM (inactive) | > 30 µM (inactive) | > 30 µM (inactive) | > 30 µM (inactive) | > 30 µM (inactive) | > 30 µM (inactive) | > 30 µM (inactive) |  |
| Cc1nc(Nc2n[nH]c3c2CN(C(=O)N[C@H](CN(C)C)c2ccccc2)C3(C)C)c2sccc2n1 [PF-03758309] | 0.939 µM (active) |  | > 30 µM (inactive) | 0.658 µM (active) | 0.066 µM (active) | > 30 µM (inactive) | 0.002 µM (active) | 6.63 |
| Cc1cnc(NC(=O)Nc2cc(Br)c(C)cc2OC[C@@H]2CNCCO2)cn1 [RABUSERTIB] | > 30 µM (inactive) | > 30 µM (inactive) | > 30 µM (inactive) | > 30 µM (inactive) | > 30 µM (inactive) | > 30 µM (inactive) | > 30 µM (inactive) |  |
| CNC(=O)c1cc(Oc2ccc(NC(=O)Nc3cc(C(C)(C)C)nn3-c3ccc4ncccc4c3)c(F)c2)ccn1 [REBASTINIB] | 0.135 µM (active) | > 30 µM (inactive) | > 30 µM (inactive) | > 30 µM (inactive) | > 30 µM (inactive) | > 30 µM (inactive) | > 30 µM (inactive) |  |
| CO[C@H]1C[C@@H]2CC[C@@H](C)[C@@](O)(O2)C(=O)C(=O)N2CCCC[C@H]2C(=O)O[C@H]([C@H](C)C[C@@H]2CC[C@@H](OP(C)(C)=O)[C@H](OC)C2)CC(=O)[C@H](C)/C=C(\C)[C@@H](O)[C@@H](OC)C(=O)[C@H](C)C[C@H](C)/C=C/C=C/C=C/1C [RIDAFOROLIMUS] | > 30 µM (inactive) | > 30 µM (inactive) | > 30 µM (inactive) | > 30 µM (inactive) | > 30 µM (inactive) | > 30 µM (inactive) | > 30 µM (inactive) |  |
| N#CC1(c2ccc(NC(=O)c3cccnc3NCc3ccncc3)cc2)CCCC1 [RIVOCERANIB] | > 30 µM (inactive) | > 30 µM (inactive) | > 30 µM (inactive) | > 30 µM (inactive) | > 30 µM (inactive) | > 30 µM (inactive) | > 30 µM (inactive) |  |
| O=c1[nH]ccc2cc(OC3CCNCC3)ccc12 [SAR-407899 FREE BASE] | > 30 µM (inactive) | > 30 µM (inactive) | > 30 µM (inactive) | > 30 µM (inactive) | > 30 µM (inactive) | > 30 µM (inactive) | > 30 µM (inactive) |  |
| Cn1cc(-c2cnn3c(N)c(Br)c([C@@H]4CCCNC4)nc23)cn1 [SCH-900776] | > 30 µM (inactive) | > 30 µM (inactive) | > 30 µM (inactive) | > 30 µM (inactive) | > 30 µM (inactive) | > 30 µM (inactive) | > 30 µM (inactive) |  |
| CO[C@H]1C[C@@H]2CC[C@@H](C)[C@@](O)(O2)C(=O)C(=O)N2CCCC[C@H]2C(=O)O[C@H]([C@H](C)C[C@@H]2CC[C@@H](OC(=O)C(C)(CO)CO)[C@H](OC)C2)CC(=O)[C@H](C)/C=C(\C)[C@@H](O)[C@@H](OC)C(=O)[C@H](C)C[C@H](C)/C=C/C=C/C=C/1C [TEMSIROLIMUS] | > 30 µM (inactive) | > 30 µM (inactive) | > 30 µM (inactive) | > 30 µM (inactive) | > 30 µM (inactive) | > 30 µM (inactive) | > 30 µM (inactive) |  |
| COc1cc2c(Nc3ccc(Cl)c(Cl)c3F)ncnc2cc1OC[C@@H]1C[C@@H]2CN(C)C[C@@H]2C1 [TESEVATINIB] | 0.628 µM (active) | > 30 µM (inactive) | > 30 µM (inactive) | > 30 µM (inactive) | > 30 µM (inactive) | > 30 µM (inactive) | > 30 µM (inactive) |  |
| C[C@@H](NC(=O)c1ncnc(N)c1Cl)c1ncc(C(=O)Nc2cc(C(F)(F)F)c(Cl)cn2)s1 [TOVORAFENIB] | 0.099 µM (active) | > 30 µM (inactive) | > 30 µM (inactive) | > 30 µM (inactive) | > 30 µM (inactive) | > 30 µM (inactive) | > 30 µM (inactive) |  |
| Cc1cc(Nc2ncnc3ccc(NC4=NC(C)(C)CO4)cc23)ccc1Oc1ccn2ncnc2c1 [TUCATINIB] | > 30 µM (inactive) | > 30 µM (inactive) | > 30 µM (inactive) | > 30 µM (inactive) | > 30 µM (inactive) | > 30 µM (inactive) | > 30 µM (inactive) |  |
